Test results: PubChem BioAssay (NCI)
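Protocol summary: plate cells (96-well), add compound at 5 concentrations, incubate 48 h, interpolate endpoints linearly. At the TGI there is no net growth.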

Experiments:
Test in all cases: NCI tumour cell line growth inhibition, 48 h
[1] = test system: SF-295 CNS
[2] = test system: A549 NSCLC
[3] = test system: U251 CNS
[4] = test system: SNB-75 CNS
[5] = test system: M14 melanoma
[6] = test system: UACC-62 melanoma
[7] = test system: TK-10 renal
[8] = test system: CAKI-1 renal
[9] = test system: SK-OV-3 ovarian
[10] = test system: SK-MEL-2 melanoma
[11] = test system: SF-268 CNS
[12] = test system: EKVX NSCLC
[13] = test system: SK-MEL-5 melanoma
[14] = test system: OVCAR-8 ovarian
[15] = test system: SR leukemia
[16] = test system: HOP-62 NSCLC
[17] = test system: SK-MEL-28 melanoma
[18] = test system: LOX IMVI melanoma
[19] = test system: HS 578T breast
[20] = test system: UO-31 renal
[21] = test system: PC-3 prostate
[22] = test system: MDA-N
[23] = test system: K-562 leukemia
[24] = test system: MOLT-4 leukemia
[25] = test system: NCI-H226 lung
[26] = test system: BT-549 breast
[27] = test system: MALME-3M melanoma
[28] = test system: SNB-19 CNS
[29] = test system: HOP-92 NSCLC
[30] = test system: NCI/ADR-RES ovarian
[31] = test system: OVCAR-4 ovarian
[32] = test system: HCT-15 colon
[33] = test system: A498 renal
[34] = test system: T-47D breast
[35] = test system: MCF7 breast
[36] = test system: COLO 205 colon
[37] = test system: ACHN renal
[38] = test system: 786-0 renal
[39] = test system: DU-145 prostate
[40] = test system: MDA-MB-435
[41] = test system: HCT-116 colon
[42] = test system: HT29 colon
[43] = test system: MDA-MB-231 breast
[44] = test system: NCI-H522 lung
[45] = test system: KM12 colon
[46] = test system: UACC-257 melanoma
[47] = test system: SN12C renal
[48] = test system: NCI-H23 lung
[49] = test system: OVCAR-5 ovarian
[50] = test system: SF-539 CNS
[51] = test system: RPMI-8226 leukemia
[52] = test system: IGROV1 ovarian
[53] = test system: OVCAR-3 ovarian
[54] = test system: CCRF-CEM leukemia
[55] = test system: SW-620 colon
[56] = test system: NCI-H460 lung
[57] = test system: HL-60(TB) leukemia
[58] = test system: RXF 393 renal
[59] = test system: HCC-2998 colon

SMILES: C[C@]12O[C@@]3(C)O[C@@]3(C)[C@]3(C)O[C@]3(C)[C@@]1(C)O2
- TGI [1]: > 100 µM
- TGI [2]: > 100 µM
- TGI [3]: > 100 µM
- TGI [4]: 74.6 µM
- TGI [5]: > 100 µM
- TGI [6]: > 100 µM
- TGI [7]: > 100 µM
- TGI [8]: > 100 µM
- TGI [9]: > 100 µM
- TGI [10]: > 100 µM
- TGI [11]: > 100 µM
- TGI [12]: > 100 µM
- TGI [13]: > 100 µM
- TGI [14]: > 100 µM
- TGI [15]: > 100 µM
- TGI [16]: > 100 µM
- TGI [17]: > 100 µM
- TGI [18]: > 100 µM
- TGI [19]: > 100 µM
- TGI [20]: > 100 µM
- TGI [21]: > 100 µM
- TGI [22]: > 100 µM
- TGI [23]: > 100 µM
- TGI [24]: > 100 µM
- TGI [25]: > 100 µM
- TGI [26]: > 100 µM
- TGI [27]: > 100 µM
- TGI [28]: > 100 µM
- TGI [29]: > 100 µM
- TGI [30]: > 100 µM
- TGI [31]: > 100 µM
- TGI [32]: > 100 µM
- TGI [33]: > 100 µM
- TGI [34]: > 100 µM
- TGI [35]: > 100 µM
- TGI [36]: > 100 µM
- TGI [37]: > 100 µM
- TGI [38]: > 100 µM
- TGI [39]: > 100 µM
- TGI [40]: > 100 µM
- TGI [41]: > 100 µM
- TGI [42]: > 100 µM
- TGI [43]: > 100 µM
- TGI [44]: > 100 µM
- TGI [45]: > 100 µM
- TGI [46]: > 100 µM
- TGI [47]: > 100 µM
- TGI [48]: > 100 µM
- TGI [49]: > 100 µM

SMILES: CCCCCCCCCCCCCC/C(C(=O)O)=C(\C)C(=O)O
- TGI [50]: > 100 µM
- TGI [51]: > 100 µM
- TGI [1]: > 100 µM
- TGI [2]: > 100 µM
- TGI [3]: > 100 µM
- TGI [4]: > 100 µM
- TGI [5]: > 100 µM
- TGI [6]: > 100 µM
- TGI [52]: > 100 µM
- TGI [7]: > 100 µM
- TGI [9]: > 100 µM
- TGI [10]: > 100 µM
- TGI [11]: > 100 µM
- TGI [53]: > 100 µM
- TGI [12]: > 100 µM
- TGI [54]: > 100 µM
- TGI [13]: > 100 µM
- TGI [14]: > 100 µM
- TGI [55]: > 100 µM
- TGI [15]: > 100 µM
- TGI [16]: > 100 µM
- TGI [17]: > 100 µM
- TGI [18]: > 100 µM
- TGI [19]: > 100 µM
- TGI [20]: > 100 µM
- TGI [21]: > 100 µM
- TGI [56]: > 100 µM
- TGI [22]: > 100 µM
- TGI [23]: > 100 µM
- TGI [24]: > 100 µM
- TGI [25]: > 100 µM
- TGI [26]: > 100 µM
- TGI [27]: > 100 µM
- TGI [57]: > 100 µM
- TGI [28]: > 100 µM
- TGI [29]: > 100 µM
- TGI [58]: > 100 µM
- TGI [30]: > 100 µM
- TGI [31]: > 100 µM
- TGI [32]: > 100 µM
- TGI [33]: > 100 µM
- TGI [34]: > 100 µM
- TGI [35]: > 100 µM
- TGI [36]: > 100 µM
- TGI [37]: > 100 µM
- TGI [38]: > 100 µM
- TGI [39]: > 100 µM
- TGI [40]: > 100 µM
- TGI [41]: > 100 µM
- TGI [42]: > 100 µM
- TGI [43]: > 100 µM
- TGI [44]: > 100 µM
- TGI [45]: > 100 µM
- TGI [46]: > 100 µM
- TGI [47]: > 100 µM
- TGI [48]: > 100 µM
- TGI [59]: > 100 µM
- TGI [49]: > 100 µM

SMILES: N#CC(C#N)[C@@H]1CCC=C(Sc2ccccc2)[C@H]1Sc1ccccc1
- TGI [50]: 4.6 µM
- TGI [1]: 19.9 µM
- TGI [2]: 12.7 µM
- TGI [3]: 23.6 µM
- TGI [4]: 17.9 µM
- TGI [5]: 4.95 µM
- TGI [6]: 13.9 µM
- TGI [52]: 13.6 µM
- TGI [7]: 4.59 µM
- TGI [8]: 8.29 µM
- TGI [9]: 16.3 µM
- TGI [10]: 12.2 µM
- TGI [11]: 14.7 µM
- TGI [53]: 12.8 µM
- TGI [12]: 15.4 µM
- TGI [54]: 7.26 µM
- TGI [13]: 18.4 µM
- TGI [14]: 9.37 µM
- TGI [15]: > 27.1 µM
- TGI [16]: 15.6 µM
- TGI [17]: 7.57 µM
- TGI [19]: 26.6 µM
- TGI [20]: 17.6 µM
- TGI [21]: 17.4 µM
- TGI [56]: 13.6 µM
- TGI [22]: 4.41 µM
- TGI [23]: > 100 µM
- TGI [24]: > 23.7 µM
- TGI [25]: 4.01 µM
- TGI [26]: 11.9 µM
- TGI [27]: 13.6 µM
- TGI [57]: 18.7 µM
- TGI [28]: 29 µM
- TGI [29]: 13.7 µM
- TGI [58]: 4.84 µM
- TGI [30]: 8.37 µM
- TGI [31]: 17.2 µM
- TGI [32]: 5.66 µM
- TGI [33]: 26.9 µM
- TGI [34]: 7.71 µM
- TGI [35]: 14.1 µM
- TGI [36]: 4.86 µM
- TGI [37]: 6.07 µM
- TGI [38]: 5.64 µM
- TGI [39]: 10.1 µM
- TGI [40]: 4.53 µM
- TGI [41]: 8.4 µM
- TGI [42]: 13.8 µM
- TGI [43]: 11.6 µM
- TGI [44]: 6.01 µM
- TGI [45]: 12.2 µM
- TGI [46]: 6.48 µM
- TGI [47]: 12.5 µM
- TGI [48]: 20.9 µM
- TGI [59]: 6.79 µM
- TGI [49]: 20.3 µM

SMILES: CC(NNC(=S)N1CCN(c2ccccn2)CC1)c1cccc[n+]1[O-] (stereo not given)
- TGI [50]: 84.2 µM
- TGI [1]: > 100 µM
- TGI [2]: > 100 µM
- TGI [3]: > 100 µM
- TGI [4]: > 100 µM
- TGI [5]: > 100 µM
- TGI [6]: 22.8 µM
- TGI [52]: > 100 µM
- TGI [7]: > 100 µM
- TGI [8]: > 100 µM
- TGI [11]: > 100 µM
- TGI [53]: > 100 µM
- TGI [12]: > 100 µM
- TGI [54]: 20.5 µM
- TGI [13]: 34.8 µM
- TGI [14]: > 100 µM
- TGI [55]: > 100 µM
- TGI [15]: 96.1 µM
- TGI [16]: > 100 µM
- TGI [17]: > 100 µM
- TGI [18]: 39.1 µM
- TGI [19]: > 100 µM
- TGI [20]: 82.3 µM
- TGI [21]: > 100 µM
- TGI [56]: > 100 µM
- TGI [22]: > 100 µM
- TGI [24]: > 100 µM
- TGI [25]: > 100 µM
- TGI [26]: > 100 µM
- TGI [57]: 16.7 µM
- TGI [28]: > 100 µM
- TGI [29]: > 100 µM
- TGI [58]: > 100 µM
- TGI [30]: 36.5 µM
- TGI [31]: > 100 µM
- TGI [32]: > 100 µM
- TGI [34]: > 100 µM
- TGI [35]: > 100 µM
- TGI [36]: > 100 µM
- TGI [37]: > 100 µM
- TGI [38]: > 100 µM
- TGI [39]: > 100 µM
- TGI [40]: > 100 µM
- TGI [41]: 13.7 µM
- TGI [42]: > 100 µM
- TGI [43]: > 100 µM
- TGI [44]: 15.3 µM
- TGI [45]: > 100 µM
- TGI [46]: > 100 µM
- TGI [47]: > 100 µM
- TGI [48]: > 100 µM
- TGI [59]: > 100 µM
